Measurements from US6555128B2, “Feeds containing docosahexaenoic acid and/or conjugated docosahexaenoic acid, and a method for farming fishes by using such feeds” (Hokkaido University, priority 2000, dated 2003).

Assays:
steelheads [1] = assay: Feeding of steelheads: content and composition of the lipid in the internal organ; assay type: in vivo, Oncorhynchus, steelheads (rainbow trouts)
Procedure: (§1) Effects of ethyl docosahexaenoate and conjugated ethyl docosahexaenoate upon accumulation of the fat and the lipid composition were examined by feeding both ethyl esters to rainbow trouts.
(§2) Measuring conditions were as follows.
(§3) 1) Sample fish: Oncorhynchus, steelheads 3 months old after birth
(§4) 2) Farming condition: water temperature 10° C., each group 60 fishes
(§5) 3) Feed (fundamental feed: compounded feed for oriental trouts)
(§6) 1st group: fundamental feed +olive oil (5 wt %)
(§7) 2nd group: fundamental feed +olive oil (3 wt %) +ethyl docosahexaenoate (0.5 wt %)
(§8) 3rd group: fundamental feed +olive oil (4.5 wt %) +ethyl conjugated docosahexaenoate (0.5 wt %)
(§9) 4th group: fundamental feed +olive oil (3 wt %) +ethyl conjugated docosahexaenoate (2 wt %)
(§10) Conjugated ethyl docosahexaenoate used is obtained by isomerization of double bonds of ethyl docosahexaenoate in the presence of an alkali catalyst, and its composition consisted of 81.4% of conjugated ethyl docosahexaenoate and 18.6% of ethyl docosahexaenoate. More specifically, conjugated ethyl docosahexaenoate consisted of 57.4% of conjugated diene ester, 12.0% of conjugated triene ester, 12.0% of conjugated tetraene ester and 18.6% of ethyl docosahexaenoate. […]
(§11) Steelheads used, which were 3 months old after birth (average weight 0.82 g) and divided into four groups each consisting 60 steelheads, were farmed at a water temperature of about 10° C. for 21 weeks.
(§12) Effects of the feeds upon the internal organs and the lipid contents of the steelheads 21 weeks old after starting the farming were examined. The concrete lipid compositions in the internal organs are shown in Table 1, and the concrete lipid compositions in muscles shown in Table 2.

steelheads [2] = assay: Feeding of steelheads: content and composition of the lipid in muscles; assay type: in vivo, Oncorhynchus, steelheads (rainbow trouts)
Procedure: as §1, §2, §3, §4, §5, §6, §7, §8, §9, §10, §11, §12

[3] = 0.5 wt % in feed, farmed 21 weeks, water 10° C.
[4] = 2nd to 4th groups versus feed with neither ester

`CC/C=C\C/C=C\C/C=C\C/C=C\C/C=C\C/C=C\CCC(=O)OCC` [ethyl docosahexaenoate] was tested, and the “Lipid composition (%) FFA, internal organ” value (steelheads [1]; [3]) was 3.0%, the “Lipid composition (%) PL, internal organ” value (steelheads [1]; [3]) was 5.8% and the “Lipid composition (%) SE, internal organ” value (steelheads [1]; [3]) was 1.6%. For the same compound, the “Lipid composition (%) TG, internal organ” value (steelheads [1]; [3]) was 89.6%, the “Lipid content (%) in the internal organ” value (steelheads [1]; [3]) was 23.2% and the “lipid contents in the internal organs compared with 1st group (FIG. 1)” value (steelheads [1]; [4]) was “lower lipid contents”. For the same compound, the “Lipid composition (%) FFA, muscles” value (steelheads [2]; [3]) was 1.7%, the “Lipid composition (%) PL, muscles” value (steelheads [2]; [3]) was 21.0% and the “Lipid composition (%) SE, muscles” value (steelheads [2]; [3]) was 0.7%. For the same compound, the “Lipid composition (%) TG, muscles” value (steelheads [2]; [3]) was 76.6%, the “Lipid content (%) in muscles” value (steelheads [2]; [3]) was 4.3% and the “lipid contents in the muscles compared with 1st group (FIG. 1)” value (steelheads [2]; [4]) was “lower lipid contents”.
